ChEMBL document CHEMBL4145686, “Discovery of a Potent and Selective Steroidal Glucocorticoid Receptor Antagonist (ORIC-101)” (J Med Chem, 2018)

Tests used:
[1] = biological target: T1, Androgen receptor (Homo sapiens, UniProt P10275); experiment: Agonist activity at AR (unknown origin) expressed in human LNCaP cells incubated for 20 hrs by luciferase reporter gene assay; assay type: cell-based
T1 sequence (P10275 whole entry): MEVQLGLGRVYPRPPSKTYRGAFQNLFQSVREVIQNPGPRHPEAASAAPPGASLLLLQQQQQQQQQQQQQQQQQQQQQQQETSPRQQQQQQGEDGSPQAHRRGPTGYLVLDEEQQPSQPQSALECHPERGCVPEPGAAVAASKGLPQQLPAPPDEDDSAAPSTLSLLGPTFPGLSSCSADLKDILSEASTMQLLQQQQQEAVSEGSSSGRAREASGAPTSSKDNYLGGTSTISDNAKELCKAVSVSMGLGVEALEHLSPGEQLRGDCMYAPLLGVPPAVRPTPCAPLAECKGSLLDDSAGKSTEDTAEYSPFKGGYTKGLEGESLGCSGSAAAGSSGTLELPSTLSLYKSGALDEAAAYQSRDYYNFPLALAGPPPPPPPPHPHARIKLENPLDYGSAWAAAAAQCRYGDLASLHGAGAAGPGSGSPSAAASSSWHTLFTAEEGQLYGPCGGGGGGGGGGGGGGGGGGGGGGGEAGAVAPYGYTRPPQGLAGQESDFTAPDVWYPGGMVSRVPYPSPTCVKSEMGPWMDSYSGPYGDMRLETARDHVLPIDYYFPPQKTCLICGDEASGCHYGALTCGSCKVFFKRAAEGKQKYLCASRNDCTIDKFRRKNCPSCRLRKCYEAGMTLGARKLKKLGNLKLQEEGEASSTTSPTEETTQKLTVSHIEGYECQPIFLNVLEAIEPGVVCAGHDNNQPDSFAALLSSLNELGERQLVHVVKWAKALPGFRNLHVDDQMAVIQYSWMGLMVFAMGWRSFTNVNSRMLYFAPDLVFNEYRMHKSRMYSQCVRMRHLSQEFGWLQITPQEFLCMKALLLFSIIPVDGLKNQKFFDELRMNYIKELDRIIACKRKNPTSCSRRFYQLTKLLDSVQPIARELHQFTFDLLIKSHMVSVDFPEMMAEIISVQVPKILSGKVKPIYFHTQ

[2] = AUC in rat at 5 mg/kg, po; assay type: ADME, organism-based; details: in vivo
[3] = biological target: Cytochrome P450 2C9 (Homo sapiens, UniProt P11712); experiment: Inhibition of CYP2C9 (unknown origin) using […] as substrate; assay type: ADME
[4] = biological target: T2, Glucocorticoid receptor (Homo sapiens, UniProt P04150); experiment: Antagonist activity at human GR expressed in CHO-K1 cells assessed as reduction in dexamethasone-induced response incubated for 20 hrs by luciferase reporter gene assay; assay type: cell-based
T2 sequence (P04150 whole entry): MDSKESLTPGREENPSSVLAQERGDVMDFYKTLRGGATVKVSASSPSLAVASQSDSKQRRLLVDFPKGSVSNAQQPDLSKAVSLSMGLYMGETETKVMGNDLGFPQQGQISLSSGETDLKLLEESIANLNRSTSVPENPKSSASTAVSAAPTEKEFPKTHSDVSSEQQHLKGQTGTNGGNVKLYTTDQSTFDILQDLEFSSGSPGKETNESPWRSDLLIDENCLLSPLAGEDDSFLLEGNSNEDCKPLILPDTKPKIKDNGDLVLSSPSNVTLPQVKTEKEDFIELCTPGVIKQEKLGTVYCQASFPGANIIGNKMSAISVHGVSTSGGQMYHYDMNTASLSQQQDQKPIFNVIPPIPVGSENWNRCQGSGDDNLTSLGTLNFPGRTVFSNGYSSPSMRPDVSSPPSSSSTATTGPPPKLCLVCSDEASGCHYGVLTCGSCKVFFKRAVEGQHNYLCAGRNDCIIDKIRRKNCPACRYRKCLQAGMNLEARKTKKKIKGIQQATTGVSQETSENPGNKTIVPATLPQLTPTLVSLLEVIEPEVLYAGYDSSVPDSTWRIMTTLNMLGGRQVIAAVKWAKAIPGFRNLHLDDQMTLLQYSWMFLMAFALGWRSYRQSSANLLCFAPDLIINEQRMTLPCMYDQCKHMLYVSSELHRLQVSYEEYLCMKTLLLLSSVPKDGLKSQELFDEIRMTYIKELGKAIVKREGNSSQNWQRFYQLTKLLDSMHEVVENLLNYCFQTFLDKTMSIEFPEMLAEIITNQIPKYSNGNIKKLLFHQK

[5] = biological target: T2, Glucocorticoid receptor; experiment: Antagonist activity at GR in human PBMC assessed as reduction in dexamethasone-induced GILZ gene expression incubated for 6 hrs by RT-qPCR method; assay type: cell-based
[6] = biological target: T1, Androgen receptor; experiment: Agonist activity at AR in human LNAR cells assessed as increase in TMPRSS2 gene expression at 100 nM incubated for 24 hrs by RT-qPCR method; assay type: cell-based; details: 0.1 µM
[7] = Cmax in rat at 5 mg/kg, po; assay type: ADME, organism-based; set-up: dose 5 mg/kg, route oral; details: in vivo
[8] = biological target: T1, Androgen receptor; experiment: Agonist activity at AR in human MDA-MB-453 cells assessed as increase in SEC14L2 gene expression at 111 to 333 nM incubated for 24 hrs by RT-qPCR method; assay type: cell-based; details: mda-mb-453, 24 h, 0.333 µM
[9] = biological target: T3, Cytochrome P450 2C8 (Homo sapiens, UniProt P10632); experiment: Inhibition of CYP2C8 (unknown origin) using […] as substrate; assay type: ADME
T3 sequence (P10632 whole entry): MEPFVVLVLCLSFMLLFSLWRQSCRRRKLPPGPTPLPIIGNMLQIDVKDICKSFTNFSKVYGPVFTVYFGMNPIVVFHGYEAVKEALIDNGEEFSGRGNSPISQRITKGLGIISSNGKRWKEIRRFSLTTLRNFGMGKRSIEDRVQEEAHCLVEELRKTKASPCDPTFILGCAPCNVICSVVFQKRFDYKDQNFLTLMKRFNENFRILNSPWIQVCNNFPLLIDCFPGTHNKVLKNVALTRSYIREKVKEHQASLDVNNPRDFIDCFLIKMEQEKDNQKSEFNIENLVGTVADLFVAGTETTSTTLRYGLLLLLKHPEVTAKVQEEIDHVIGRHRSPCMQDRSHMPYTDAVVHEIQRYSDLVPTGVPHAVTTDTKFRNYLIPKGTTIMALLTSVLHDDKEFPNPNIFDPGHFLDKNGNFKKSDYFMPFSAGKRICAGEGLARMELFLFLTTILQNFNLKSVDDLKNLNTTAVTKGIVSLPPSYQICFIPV

[10] = Antagonist activity at GR in monkey PBMC assessed as reduction in dexamethasone-induced FKBP5 gene expression incubated for 6 hrs by RT-qPCR method; assay type: cell-based; details: Macaca mulatta
[11] = biological target: T2, Glucocorticoid receptor; experiment: (§1) Antagonist activity at GR in human OVCAR5 assessed as reduction in dexamethasone-induced FKBP5 gene expression incubated for 24 hrs by RT-qPCR method
[12] = biological target: T4, Glucocorticoid receptor (Homo sapiens) (UniProt P04150); experiment: as §1
T4 sequence (whole entry): T2 sequence (P04150 whole entry)

Cytochrome P450 2C9, sequence (P11712 whole entry): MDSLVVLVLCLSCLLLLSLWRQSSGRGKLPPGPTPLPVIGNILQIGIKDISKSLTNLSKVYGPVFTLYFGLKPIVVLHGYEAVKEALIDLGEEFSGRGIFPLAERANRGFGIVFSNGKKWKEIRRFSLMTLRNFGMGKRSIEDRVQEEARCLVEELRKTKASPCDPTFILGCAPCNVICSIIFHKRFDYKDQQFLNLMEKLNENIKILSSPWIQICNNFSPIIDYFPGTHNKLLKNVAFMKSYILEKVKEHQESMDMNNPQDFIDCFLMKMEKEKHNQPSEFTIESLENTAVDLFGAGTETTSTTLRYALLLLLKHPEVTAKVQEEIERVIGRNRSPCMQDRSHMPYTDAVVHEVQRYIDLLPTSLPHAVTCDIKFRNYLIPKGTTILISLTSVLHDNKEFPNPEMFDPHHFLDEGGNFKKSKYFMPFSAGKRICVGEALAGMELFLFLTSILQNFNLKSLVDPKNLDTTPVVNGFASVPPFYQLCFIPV

## CC(C)N(C)c1ccc([C@H]2C[C@@]3(C)[C@@H](CC[C@@]3(O)C#CC(C)(C)C)[C@@H]3CCC4=CC(=O)CC[C@@H]4[C@H]32)cc1
[1]
  EC50: > 2500 nM
[2]
  AUC: 635 ng·h/mL
[3]
  IC50: > 10000 nM
[4]
  IC50: 5.6 nM
[5]
  IC50: 24.9 nM
[6]
  Activity: Not Active
[7]
  Cmax: 149 ng/mL
[8]
  Activity: Not Active
[9]
  IC50: > 10000 nM
[10]
  IC50: 11.1 nM
[11]
  IC50: 17.2 nM
[12]
  inhibition: Dose-dependent effect
